How the values were obtained:
Format in all cases: cell-based
[1] = test system: mouse hippocampal neurons; assay: OCR and ECAR (Seahorse) in mouse hippocampal neurons; conditions: primary mouse hippocampal neurons, 100 nM, 20 h
Experimental: (§1) Cells were plated at 1.8×10^6 cells per well in a Seahorse XF24 Cell Culture Microplate (Agilent). Cells were then treated with indicated inhibitors or agonists in each experiment for 20 h. Cells were washed twice with Agilent Seahorse XF Media (Agilent) supplemented with 1 mM pyruvate, 2 mM L-glutamine, and 10 mM D-glucose; a final volume of 525 μl was placed in each well. Cells were then incubated in a 0% CO2 chamber at 37° C. for 1 h before being placed into a Seahorse XFe24 Analyzer (Agilent). For OCR and ECAR mitostress test experiments, cells were treated with 1 μM oligomycin, 2 μM carbonyl cyanide p-trifluoromethoxyphenylhydrazone (FCCP), and 0.5 μM rotenone/antimycin (indicated by three black arrows in each seahorse trace). For mitoFlex Fuel test experiments, cells were treated with UK5099 (200 μM) and BPTES (200 μM)/Etomoxir (80 μM). A total of three OCR and pH measurements were taken after each compound was administered. All Seahorse experiments were repeated at least three times unless otherwise indicated. All OCR and ECAR data were normalized to cell number per well using CyQUANT (ThermoFisher Scientific, Waltham, Mass., USA).
Hippocampi were dissected from embryonic Day 17.5 mice embryos, dissociated using trypsin (2 mg/ml) and DNase I (0.6 mg/ml), and plated at a density of 100, 000 cells per well in Seahorse XF24 culture plate coated with poly-L-lysine. […]

human MDMs = assay: Chemokine and cytokine multiplex assay, supernatant of human MDMs; conditions: aged (>65 yo) human MDMs, stimulated 8 h later
Experimental: Hippocampal lysates or mouse plasma were stored at −80° C. and cytokine analysis was carried out at the Human Immune Monitoring Core (Stanford University) or Eve Technologies (Calgary, Alberta, Canada) using Luminex mouse 39-plex kits and Human 71-plex kits. Plates were read using a Luminex LabMap200 instrument or a MSD Chemiluminescence instrument with a lower bound of 100 beads per sample per measured cytokine. Each sample was tested in triplicate. Mean fluorescence intensity (MFI) was averaged over duplicate wells for each cytokine per sample on each plate. All were transcardially perfused prior to isolation of hippocampi and other brain tissue.
Peripheral blood mononuclear cells from de-identified healthy donors (young<35 years old, aged>65 years old) were obtained from the Stanford Blood Center and transferred to 50 ml conical tubes. […]
Plasmid-containing human GYS1 shRNA (Table 3) or Scr (2 μg) (HuSH shRNA shGYS1 Lenti Cloning Vector [pGFP-C-shLenti]) were incubated with a mixture of nucleofection solution and P4 primary cell supplement (82 μl:18 μl nucleofection solution:supplement) and placed in nucleofection cuvettes. […] Cells were then plated in 10-cm plates and incubated 37° C. under 5% CO2 for 8 h before GYS1 protein expression was analyzed by quantitative immunoblotting.

[2] = test system: human monocyte-derived macrophages (human MDMs); assay: Real-time oxygen consumption rate (OCR) and ECAR (Seahorse) in human MDMs; conditions: 20 h
Experimental: as §1
Peripheral blood mononuclear cells from de-identified healthy donors (young<35 years old, aged>65 years old) were obtained from the Stanford Blood Center and transferred to 50 ml conical tubes. Samples were diluted with 20 ml PBS and layered onto 10 ml of Ficoll-Paque (GE Healthcare) using a Pasteur pipette. Tubes were centrifuged at 1,500 r.p.m. for 25 min without brake at 20° C. The mononuclear cell layer was transferred to a new 50 ml conical tube, resuspended in 50 ml 1×PBS and centrifuged at 1500 r.p.m. for 10 min, repeated twice. After centrifugation, monocytes were isolated using a Monocyte Isolation Kit, human (MACS; Miltenyi Biotech). Cells were then plated 10×10^6 per 10-cm petri dish and differentiated for 7 days in Roswell Park Memorial Institute (RPMI) media supplemented with 10% FBS, 1% penicillin-streptomycin, and 50 ng ml^−1 M-CSF (Peprotech).

mouse astrocytes = assay: OCR and ECAR (Seahorse) in mouse astrocytes; conditions: primary mouse astrocytes, 100 nM, 20 h
Experimental: as §1
Primary astrocyte cultures were prepared from cerebral cortices of postnatal day 1-2 C57BL/6J mice. […]

[3] = test system: mouse peritoneal macrophages; assay: OCR and ECAR (Seahorse) in mouse peritoneal macrophages; conditions: aged (18-20 mo) mouse peritoneal macrophages, 100 nM, 20 h
Experimental: as §1, with “USA). […]” for “USA).”
Cd11bCre, and WT mice. Mice were injected intraperitoneally with 1.5 ml 3% (w/v) thioglycolate medium (BD Biosciences), and primary macrophages were isolated 3-4 days later by flushing with ice-cold 1×PBS buffer (Corning). […]

CCCC1([C@H](O)C/C=C/[C@H]2[C@H](O)CC(=O)[C@@H]2CCCCCCC(=O)OC)CCC1 [butaprost]
OCR and ECAR [1]: no significant effects
immune phenotypes (immune factors in supernatant) of aged human MDMs + GYS1 shRNA (human MDMs): refractory to further EP2 receptor activation
OCR in GYS1-deficient aged human MDMs ([2]; aged (>65 yo) human MDMs nucleofected with shGYS1, 100 nM, 8 h post nucleofection): refractory to treatment
bioenergetic or immune factor phenotypes of aged human MDMs lacking GYS1 ([2]; aged human MDMs + GYS1 shRNA, 100 nM): did not alter
OCR and ECAR (mouse astrocytes): no significant effects

CCCCC[C@H](O)/C=C/[C@H]1[C@H](O)CC(=O)[C@@H]1C/C=C\CCCC(=O)O [PGE2, prostaglandin E2]
OCR and ECAR [1]: no significant effects
ECAR (extracellular acidification rate, glycolysis) ([2]; human MDMs, dose response): decreased glycolysis
basal OCR (oxygen consumption) ([2]; human MDMs, dose response): suppressed oxygen consumption
OCR and ECAR (mouse astrocytes): no significant effects

NS(=O)(=O)c1ccc(-n2nc(C(F)(F)F)cc2-c2ccc(Cl)cc2)cc1 [SC236]
basal respiration and ECAR [3]: partially phenocopies EP2 receptor antagonism
